Results published in PubChem BioAssay (NCI).
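Five concentrations, 48 hours, 96-well plates. TGI: total growth inhibition.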

Columns and labels:
Assay in all cases: DTP human tumour cell line panel, 48 h
[1] = test system: SK-OV-3 ovarian
[2] = test system: IGROV1 ovarian
[3] = test system: SK-MEL-2 melanoma
[4] = test system: LOX IMVI melanoma
[5] = test system: SNB-19 CNS
[6] = test system: SF-539 CNS
[7] = test system: HOP-92 NSCLC
[8] = test system: T-47D breast
[9] = test system: SNB-75 CNS
[10] = test system: KM12 colon
[11] = test system: CCRF-CEM leukemia
[12] = test system: EKVX NSCLC
[13] = test system: A549 NSCLC
[14] = test system: PC-3 prostate
[15] = test system: OVCAR-8 ovarian
[16] = test system: SF-268 CNS
[17] = test system: SK-MEL-5 melanoma
[18] = test system: SK-MEL-28 melanoma
[19] = test system: COLO 205 colon
[20] = test system: MDA-N
[21] = test system: MALME-3M melanoma
[22] = test system: UACC-257 melanoma
[23] = test system: HCT-116 colon
[24] = test system: RXF 393 renal
[25] = test system: 786-0 renal
[26] = test system: ACHN renal
[27] = test system: DU-145 prostate
[28] = test system: A498 renal
[29] = test system: UO-31 renal
[30] = test system: CAKI-1 renal
[31] = test system: HOP-62 NSCLC
[32] = test system: MCF7 breast
[33] = test system: OVCAR-5 ovarian
[34] = test system: NCI-H226 lung
[35] = test system: NCI-H522 lung
[36] = test system: HL-60(TB) leukemia
[37] = test system: SF-295 CNS
[38] = test system: OVCAR-4 ovarian
[39] = test system: K-562 leukemia
[40] = test system: HT29 colon
[41] = test system: SW-620 colon
[42] = test system: NCI-H460 lung
[43] = test system: MOLT-4 leukemia
[44] = test system: OVCAR-3 ovarian
[45] = test system: MDA-MB-231 breast
[46] = test system: RPMI-8226 leukemia
[47] = test system: NCI-H23 lung
[48] = test system: M14 melanoma
[49] = test system: MDA-MB-435
[50] = test system: SN12C renal
[51] = test system: UACC-62 melanoma
[52] = test system: NCI/ADR-RES ovarian
[53] = test system: HS 578T breast
[54] = test system: U251 CNS
[55] = test system: TK-10 renal

SMILES: COC(=O)C(CSSC[C@H](N/C(C)=C/C(C)=O)C(=O)OC)N/C(C)=C/C(C)=O (stereo not given in full)
- TGI [1]: > 100 µM
- TGI [2]: > 100 µM
- TGI [3]: > 100 µM
- TGI [4]: 39.7 µM
- TGI [5]: > 100 µM
- TGI [6]: > 100 µM
- TGI [7]: > 100 µM
- TGI [8]: 58 µM
- TGI [9]: > 100 µM
- TGI [10]: > 100 µM
- TGI [11]: 71.5 µM
- TGI [12]: 41.4 µM
- TGI [13]: > 100 µM
- TGI [14]: > 100 µM
- TGI [15]: 0.0686 µM
- TGI [16]: > 100 µM
- TGI [17]: > 100 µM
- TGI [18]: > 100 µM
- TGI [19]: > 100 µM
- TGI [20]: > 100 µM
- TGI [21]: 68.6 µM
- TGI [22]: > 100 µM
- TGI [23]: > 100 µM
- TGI [24]: 52.7 µM
- TGI [25]: > 100 µM
- TGI [26]: 17.1 µM
- TGI [27]: 87.5 µM
- TGI [28]: > 100 µM
- TGI [29]: > 100 µM
- TGI [30]: 55.4 µM
- TGI [31]: > 100 µM
- TGI [32]: 88.6 µM
- TGI [33]: 39.2 µM
- TGI [34]: > 100 µM
- TGI [35]: 30 µM
- TGI [36]: > 100 µM
- TGI [37]: > 100 µM
- TGI [38]: > 100 µM
- TGI [39]: > 100 µM
- TGI [40]: > 100 µM
- TGI [41]: > 100 µM
- TGI [42]: > 100 µM
- TGI [43]: > 100 µM
- TGI [44]: 88.9 µM
- TGI [45]: > 100 µM
- TGI [46]: 63.5 µM
- TGI [47]: > 100 µM
- TGI [48]: > 100 µM
- TGI [49]: > 100 µM
- TGI [50]: > 100 µM
- TGI [51]: > 100 µM
- TGI [52]: > 100 µM
- TGI [53]: 52.9 µM
- TGI [54]: > 100 µM
- TGI [55]: 39.1 µM
